6 compounds from ChEMBL document CHEMBL3616412, “Re-engineering nalidixic acid's chemical scaffold: A step towards the development of novel anti-tubercular and anti-bacterial leads for resistant pathogens” (2015) can be followed below.

In assay [1] the test system is Mycobacterium tuberculosis. As to the kind of experiment: Antitubercular activity against Mycobacterium tuberculosis H37Rv ATCC 27294 after 5 days by micro alamar blue assay. The format is functional. Background: Alamar Blue is a resazurin reagent that responds to reducing activity.
For assay [2], the system named is Staphylococcus aureus. Kind of assay: Antibacterial activity against Staphylococcus aureus after 24 hrs by agar dilution method. In kind it is functional. Background: In agar dilution, organisms are placed on agar that contains the substance at set levels.
Assay [3] has as its system Salmonella paratyphi. Kind of assay: Antibacterial activity against Salmonella paratyphi at 10 ug/disk after 24 hrs by agar plate disk diffusion method. In kind it is functional, Salmonella enterica subsp. enterica serovar Paratyphi A. Conditions: Salmonella enterica, read-out: DIZ. On the technique in general: A growth-free zone around the sample is the usual read-out of agar diffusion tests.

Assay [4] has as its system Staphylococcus aureus. Kind of assay: Antibacterial activity against Staphylococcus aureus at 10 ug/disk after 24 hrs by agar plate disk diffusion method. In kind it is functional. Conditions: read-out: DIZ.
Assay [5] has as its system Salmonella typhi. Kind of assay: Antibacterial activity against Salmonella typhi after 5 days by microdilution method. In kind it is functional, Salmonella enterica subsp. enterica serovar Typhi. Particulars: Salmonella enterica, 120 h.
Assay [6] relates to Salmonella typhi. As to the kind of experiment: Antibacterial activity against Salmonella typhi after 24 hrs by agar dilution method. Particulars: Salmonella enterica. In kind it is functional, Salmonella enterica subsp. enterica serovar Typhi.
The subject of assay [7] is Proteus vulgaris. As to the kind of experiment: Antibacterial activity against Proteus vulgaris at 10 ug/disk after 24 hrs by agar plate disk diffusion method. The format is functional. Conditions: read-out: DIZ.
The test system of assay [8] is Proteus vulgaris. As to the kind of experiment: Antibacterial activity against Proteus vulgaris after 5 days by microdilution method. The format is functional. Particulars: 120 h.
The subject of assay [9] is Staphylococcus aureus. Kind of assay: Antibacterial activity against Staphylococcus aureus after 5 days by microdilution method. In kind it is functional. Conditions: 120 h.
In assay [10] the test system is Salmonella paratyphi. As to the kind of experiment: Antibacterial activity against Salmonella paratyphi after 24 hrs by agar dilution method. In kind it is functional, Salmonella enterica subsp. enterica serovar Paratyphi A. Particulars: Salmonella enterica.
Assay [11] concerns Escherichia coli. As to the kind of experiment: Antibacterial activity against Escherichia coli at 10 ug/disk after 24 hrs by agar plate disk diffusion method. In kind it is functional. Particulars: read-out: DIZ.
For assay [12], the system named is Pseudomonas aeruginosa. As to the kind of experiment: Antibacterial activity against Pseudomonas aeruginosa at 10 ug/disk after 24 hrs by agar plate disk diffusion method. The format is functional. Conditions: read-out: DIZ.
The subject of assay [13] is Proteus vulgaris. Kind of assay: Antibacterial activity against Proteus vulgaris after 24 hrs by agar dilution method. The format is functional.
In assay [14] the test system is Salmonella paratyphi. Kind of assay: Antibacterial activity against Salmonella paratyphi after 5 days by microdilution method. Particulars: Salmonella enterica, 120 h. The format is functional, Salmonella enterica subsp. enterica serovar Paratyphi A.
For assay [15], the system named is Salmonella typhi. Kind of assay: Antibacterial activity against Salmonella typhi at 10 ug/disk after 24 hrs by agar plate disk diffusion method. In kind it is functional, Salmonella enterica subsp. enterica serovar Typhi. Conditions: Salmonella enterica, read-out: DIZ.
For assay [16], the system named is Pseudomonas aeruginosa. As to the kind of experiment: Antibacterial activity against Pseudomonas aeruginosa after 24 hrs by agar dilution method. In kind it is functional.
Assay [17] has as its system Escherichia coli. Kind of assay: Antibacterial activity against Escherichia coli after 24 hrs by agar dilution method. The format is functional.
Assay [18] concerns Pseudomonas aeruginosa. Kind of assay: Antibacterial activity against Pseudomonas aeruginosa after 5 days by microdilution method. In kind it is functional. Conditions: 120 h.
Assay [19] relates to Escherichia coli. Kind of assay: Antibacterial activity against Escherichia coli after 5 days by microdilution method. In kind it is functional. Particulars: 120 h.

For orientation: MIC means the lowest concentration that inhibits growth of the organism. The low end stands for greater potency, the high end for weaker potency.

Values after ≈ are worked out from the molar mass of the structure shown.

On to `CO[C@H]1/C=C/O[C@@]2(C)Oc3c(C)c(O)c4c(O)c(c(/C=N/N5CCN(C)CC5)c(O)c4c3C2=O)NC(=O)/C(C)=C\C=C\[C@H](C)[C@H](O)[C@@H](C)[C@@H](O)[C@@H](C)[C@H](OC(C)=O)[C@@H]1C` [RIFAMPIN], for which the “inhibition (INH)” value in [1] is recorded as 98%.
With `O=C(O)c1cn(C2CC2)c2cc(N3CCNCC3)c(F)cc2c1=O` [CIPROFLOXACIN], the MIC against Staphylococcus aureus [2] worked out at 0.12 µg/mL (≈ 0.362 µM); in the assay with Salmonella typhi [5], 0.12 µg/mL (≈ 0.362 µM); with Salmonella typhi [6] it was 0.12 µg/mL (≈ 0.362 µM); in the assay on Proteus vulgaris [8], 0.25 µg/mL (≈ 0.754 µM); in the assay with Staphylococcus aureus [9], 0.12 µg/mL (≈ 0.362 µM); with Salmonella paratyphi [10] it was 0.25 µg/mL (≈ 0.754 µM). Besides, the MIC against Proteus vulgaris [13] and with Salmonella paratyphi [14] was 0.25 µg/mL (≈ 0.754 µM) each time. The zone of inhibition at 10 µg/disc was determined as 25 mm in the assay with Salmonella paratyphi [3]; 30 mm in the assay with Staphylococcus aureus [4]; 33 mm with Proteus vulgaris [7]; 28 mm with Escherichia coli [11]; 23 mm with Pseudomonas aeruginosa [12]; 26 mm with Salmonella typhi [15].
Turning to `CCn1cc(C(=O)N/N=c2\[nH]c3ccccc3[nH]c2=O)c(=O)c2ccc(C)nc21`, the MIC with Staphylococcus aureus [2] is 1 µg/mL (≈ 2.56 µM); against Pseudomonas aeruginosa [16], more than 4 µg/mL; against Escherichia coli [17], 2 µg/mL (≈ 5.12 µM); in the assay with Pseudomonas aeruginosa [18] it was more than 4 µg/mL; against Escherichia coli [19] it was 2 µg/mL (≈ 5.12 µM); in the assay on Salmonella typhi [5], more than 4 µg/mL. Moreover, the MIC with Salmonella typhi [6] was more than 4 µg/mL; in the assay with Proteus vulgaris [8], 2 µg/mL (≈ 5.12 µM); in the assay with Staphylococcus aureus [9], 1 µg/mL (≈ 2.56 µM); in the assay on Salmonella paratyphi [10], more than 4 µg/mL; against Proteus vulgaris [13], 2 µg/mL (≈ 5.12 µM); against Salmonella paratyphi [14], more than 4 µg/mL. In addition, the zone of inhibition at 10 µg/disc with Salmonella paratyphi [3] amounted to 15 mm; with Staphylococcus aureus [4] it was 21 mm; with Proteus vulgaris [7], 20 mm; with Escherichia coli [11] it was 22 mm; in the assay on Pseudomonas aeruginosa [12], 17 mm; in the assay on Salmonella typhi [15] it was 14 mm. Moreover, the “inhibition (INH)” value in assay [1] is on record as 91%.
Regarding `CC1(C)S[C@@H]2[C@H](NC(=O)[C@H](N)c3ccc(O)cc3)C(=O)N2[C@H]1C(=O)O` [AMOXICILLIN], the MIC with Staphylococcus aureus [2] stood at 0.5 µg/mL (≈ 1.37 µM); against Pseudomonas aeruginosa [16], 2 µg/mL (≈ 5.47 µM); against Escherichia coli [17] it was 0.25 µg/mL (≈ 0.684 µM); against Pseudomonas aeruginosa [18], 2 µg/mL (≈ 5.47 µM); in the assay with Escherichia coli [19], 0.25 µg/mL (≈ 0.684 µM); in the assay on Salmonella typhi [5], 0.5 µg/mL (≈ 1.37 µM). The MIC in the assay on Salmonella typhi [6] stood at 0.5 µg/mL (≈ 1.37 µM); in the assay on Proteus vulgaris [8] it was 1 µg/mL (≈ 2.74 µM); in the assay with Staphylococcus aureus [9], 0.5 µg/mL (≈ 1.37 µM); with Salmonella paratyphi [10], 2 µg/mL (≈ 5.47 µM); against Proteus vulgaris [13], 1 µg/mL (≈ 2.74 µM); against Salmonella paratyphi [14], 2 µg/mL (≈ 5.47 µM). Also, the zone of inhibition at 10 µg/disc in the assay on Salmonella paratyphi [3] came out at 22 mm; in the assay on Staphylococcus aureus [4], 32 mm; in the assay with Proteus vulgaris [7], 24 mm; in the assay with Escherichia coli [11], 25 mm; in the assay with Pseudomonas aeruginosa [12], 21 mm; in the assay with Salmonella typhi [15], 21 mm.
`CCn1cc(-c2nn(-c3nc4ccccc4[nH]c3=O)c(=S)o2)c(=O)c2ccc(C)nc21`: the MIC was found to be 0.06 µg/mL (≈ 0.139 µM) against Staphylococcus aureus [2]; 1 µg/mL (≈ 2.31 µM) against Pseudomonas aeruginosa [16]; 0.5 µg/mL (≈ 1.16 µM) against Escherichia coli [17]; 1 µg/mL (≈ 2.31 µM) in the assay on Pseudomonas aeruginosa [18]; 0.5 µg/mL (≈ 1.16 µM) against Escherichia coli [19]; 1 µg/mL (≈ 2.31 µM) with Salmonella typhi [5]. Besides, the MIC against Salmonella typhi [6] amounted to 1 µg/mL (≈ 2.31 µM); against Proteus vulgaris [8], 1 µg/mL (≈ 2.31 µM); against Staphylococcus aureus [9] it was 0.06 µg/mL (≈ 0.139 µM); against Salmonella paratyphi [10], 1 µg/mL (≈ 2.31 µM); against Proteus vulgaris [13] it was 1 µg/mL (≈ 2.31 µM); against Salmonella paratyphi [14], 1 µg/mL (≈ 2.31 µM). For the same compound, the zone of inhibition at 10 µg/disc is 22 mm with Salmonella paratyphi [3]; 32 mm in the assay on Staphylococcus aureus [4]; 26 mm in the assay on Proteus vulgaris [7]; 25 mm in the assay with Escherichia coli [11]; 23 mm in the assay on Pseudomonas aeruginosa [12]; 23 mm in the assay with Salmonella typhi [15]. In addition, the “inhibition (INH)” value in assay [1] was 75%.
As to `CCn1cc(C(=O)NNC(=S)/N=c2\[nH]c3ccccc3[nH]c2=O)c(=O)c2ccc(C)nc21`, the MIC was 1 µg/mL (≈ 2.22 µM) in the assay on Staphylococcus aureus [2]; more than 4 µg/mL against Pseudomonas aeruginosa [16]; 2 µg/mL (≈ 4.45 µM) against Escherichia coli [17]; more than 4 µg/mL in the assay with Pseudomonas aeruginosa [18]; 2 µg/mL (≈ 4.45 µM) with Escherichia coli [19]; 2 µg/mL (≈ 4.45 µM) against Salmonella typhi [5]. The MIC in the assay on Salmonella typhi [6] is 2 µg/mL (≈ 4.45 µM); in the assay on Proteus vulgaris [8] it was 2 µg/mL (≈ 4.45 µM); in the assay with Staphylococcus aureus [9], 1 µg/mL (≈ 2.22 µM); in the assay with Salmonella paratyphi [10], 2 µg/mL (≈ 4.45 µM); against Proteus vulgaris [13], 2 µg/mL (≈ 4.45 µM); against Salmonella paratyphi [14], 2 µg/mL (≈ 4.45 µM). Also, the zone of inhibition at 10 µg/disc in the assay on Salmonella paratyphi [3] came out at 18 mm; in the assay with Staphylococcus aureus [4] it was 20 mm; in the assay on Proteus vulgaris [7] it was 18 mm; with Escherichia coli [11] it was 19 mm; in the assay with Pseudomonas aeruginosa [12] it was 19 mm; in the assay on Salmonella typhi [15] it was 22 mm. Moreover, the “inhibition (INH)” value in assay [1] worked out at 93%.
